Measurements published in publication PMC4414346, “Crystal Structure of Allophycocyanin from Marine Cyanobacterium Phormidium sp. A09DM” (PLoS ONE, 2015).

Biological target: T1, Phormidium APC (allophycocyanin) (Phormidium rubidum, UniProt A0A078K1U6+A0A078K4M9)
T1 construct: gene apcA; native purification from the cyanobacterium; no tags; alpha 18064 Da and beta 18011 Da with chromophore; trimer of alpha-beta monomers (118 kDa); N-methylasparagine in beta; GenBank entries partial (alpha 9-161, beta 1-155), corrected in structure: alpha N10K, R49C, D145N, beta E35K
Assay: X-ray crystallography, […] A
Type: binding
Conditions: covalent; one chromophore on Cys-81 of alpha and one on Cys-81 of beta; alpha-chromophore site also lined by beta residues in the trimer; crystals pH 8.5, PEG 6000

SMILES: C/C=C1/C(=C/c2[nH]c(/C=C3N=C(/C=C4\NC(=O)C(CC)=C4C)C(C)=C\3CCC(=O)O)c(CCC(=O)O)c2C)NC(=O)[C@@H]1C [phycocyanobilin]
- X-ray crystallography, 2.51 A: One PCB chromophore is covalently bonded to the conserved Cys-81 of α-subunit (α-chromophore)
